According to patent publication US11667612B2, “Compositions and methods for delivering pharmaceutical agents” (Arizona Board of Regents on Behalf of the University of …, priority 2017, dated 2023):
Several values for one entry are separate records, joined by “and”; a condition that tells them apart may be missing. Equal entries are not always repeated.

Key:
[1] = Karl Fischer coulometric titration, residual water content; type: physicochemical
[2] = tested on: monocrotaline (MCT) rat model of PH; test: In vivo hemodynamic efficacy study in PH induced rats (monocrotaline model); design: species or system Sprague Dawley rats; details: for Right ventricle systolic pressure (RVSP): individual rats, inhaled dry powder 10 mg/kg for 14 days
Method: In vivo studies were conducted in a monocrotaline (MCT) rat model with the purpose of testing the efficacy of TMP in decreasing PH. A total of 30 male Sprague Dawley rats (280-350 g) were used in this study. Rats were purchased from Charles River Laboratories International Inc. (Wilmington, Mass.). Rats were weighted weekly to monitor their health. PH was induced by injecting 60 mg/kg of MCT via intraperitoneally. The animals were divided into 5 groups (n=5) into the following categories: 1) Naïve (control), 2) Naïve+TMP, 3) MCT (PH induced) 4) MCT+ treated with vehicle (air), 5) MCT+ treated with TMP. Two weeks after MCT administration, the rats started to get the treatment via aerosolization of a dry powder formulation of SD TMP (10 mg/kg) using a Penn Century Dry Powder Insufflator™—Model DP-4M for 14 days. Right ventricle systolic pressure (RVSP) hemodynamics were performed after 2 weeks and 4 weeks after MCT administration by inserting a customized pressure transducer catheter (SPR-513, Millar Instruments, Houston, Tex.), into the right ventricle (RV) via the right jugular vein and right atrium. The transducer was connected to a Millar Transducer Control Unit TC-510 and PL3504 PowerLab 4/35 data acquisition system (ADInstruments, Inc., Colorado Springs, Colo.). At the end of pressure recording, the animals were euthanized.

[3] = Laser diffraction particle sizing and size distribution; type: physicochemical
Method: Particle size and size distributions of the particles were determined by laser diffraction with the SALD-7101 (Shimadzu Scientific Instruments, Japan) using conditions previously reported (Li X, Mansour H M., AAPS PharmSciTech. December 2011; 12(4):1420-1430; Meenach S A, et al., Int J Nanomedicine. 2013; 8:275-293; Wu X, et al., Drug design, development and therapy. 2013; 7:59-72; Wu X, et al., Int J Nanomedicine. 2013; 8:1269-1283) for measurement of the mean size and size distribution of SD particles in aqueous suspension. Samples were dispersed in ultrapure water and ultrasonicated for 10 s in water bath ultrasonicator Branson 7500 before measuring particle size. Sample particle dispersion was immediately transferred to particle size measuring cell and kept stirring during measurement in nano particle size analyzer. The low refractive index of 1.50-0.00i was used. Volume-based measurements were obtained. DV10, DV50, and DV90 were used as particle size characterization parameters. The span value was calculated using the equation defined as Span=[(DV90−DV10)/DV50] Equation 1. X-Ray Powder Diffraction (XRPD)

[4] = In vitro aerosol dispersion performance, Next Generation Impactor (NGI); type: physicochemical; details: for Emitted Fraction (%) / Emitted dose / Fine Particle Dose / Fine Particle Fraction (%) / GSD / MMAD / Respirable Dose / Respirable Fraction (%): NGI 60 L/min
Method: In accordance with US Pharmacopeia (USP) Chapter <601> specification on aerosols and using conditions similar to previously reported (Meenach S A, et al., AAPS PharmSciTech. 2014; 15(6):1574-1587; Muralidharan P, et al., Molecular Systems Design & Engineering. 2016), the in vitro aerosol dispersion properties of the dry powder particles were determined using the Next Generation Impactor® (NGI®) with a stainless steel induction port (USP throat) attachment (NGI® Model 170), equipped with specialized stainless steel NGI® gravimetric insert cups (MSP Corporation, Shoreview, Md., USA). The NGI® was coupled with a Copley TPK 2000 critical flow controller connected to a Copley HCP5 vacuum pump, and the airflow rate (Q), was measured and adjusted prior to each experiment using a Copley DFM 200 flow meter (Copley Scientific, UK).
The mass of powder deposited on each stage was quantified by a gravimetric method using type A/E glass fiber filters with diameter 55 mm (PALL Corporation, Port Washington, N.Y.) and 75 mm (Advance, Japan). Quali-V clear HPMC size 3 inhalation grade capsules (Qualicaps, North Carolina) filled with about 10 mg of powder were used. Three capsules were used in each experiment. In vitro aerosolization was done in triplicate (n=3) under ambient conditions. The NGI™ was operated at a flow rate of 601 min^1 with an actuation time of 10 s through the inhaler. The glass fiber filter was measured gravimetrically before and after actuation, on each stage, to determine the particle stage deposition. The fine particle dose (FPD), fine particle fraction (FPF), respirable fraction (RF), and emitted dose (ED) were calculated using the following equations:
[formula] [formula] [formula] The mass mean aerodynamic diameter (MMAD) and geometric standard deviation (GSD) of aerosol dispersion profiles were determined using a Mathematica (Wolfram Research Inc., Champaign, Ill.) program ((Meenach S A, et al., AAPS PharmSciTech. 2014; 15(6):1574-1587; Muralidharan P, et al., Molecular Systems Design & Engineering. 2016). The aerosol dispersion performance was tested using three FDA approved inhalers Handihaler®, Aerolizer®, and Neohaler®. In Vitro Cell Dose Response Assay
In accordance with US Pharmacopeia (USP) Chapter <601> specification on aerosols and using conditions similar to previously reported, the in vitro aerosol dispersion properties of the dry powder particles were determined using the Next Generation Impactor® (NGI®) with a stainless steel induction port (USP throat) attachment (NGI® Model 170), equipped with specialized stainless steel NGI® gravimetric insert cups (MSP Corporation, Shoreview, Md., USA). The NGI® was coupled with a Copley TPK 2000 critical flow controller connected to a Copley HCP5 vacuum pump, and the airflow rate (Q), was measured and adjusted prior to each experiment using a Copley DFM 200 flow meter (Copley Scientific, UK).
The mass of powder deposited on each stage was quantified by gravimetric method using type A/E glass fiber filters with diameter 55 mm (PALL Corporation, Port Washington, N.Y.) and 75 mm (Advance, Japan). Quali-V clear HPMC size 3 inhalation grade capsules (Qualicaps, North Carolina) filled with about 10 mg of powder were used. Three capsules were used in each experiment. In vitro aerosolization was done in triplicate (n=3) under ambient conditions. The NGI™ was operated at a flow rate of 601 min^−1 with a delay time of 10 s before actuation of the inhaler, followed by 10 s of airflow through the inhaler. The glass fiber filter was measured gravimetrically before and after actuation, on each stage, to determine the particle stage deposition. The fine particle dose (FPD), fine particle fraction (FPF), respirable fraction (RF), and emitted dose (ED) were calculated using the 3-6 equations:

[5] = tested on: Calu-3 lung epithelial cells; test: In vitro transepithelial electrical resistance (TEER) analysis; type: cell-based, human; details: Calu-3, AIC, 100 μM
Method: The cells were seeded at 500,000 cells/ml in Costar Transwells® (0.4 μm polyester membrane, 12 mm for a 12-well plate) with 0.5 ml of media on the apical side and 1.5 ml of media on the basolateral side. Media was changed every other day from the basolateral and apical side. After 10 days of growth, when the cells reached a TEER value of about 1000 Ω/cm^2 which is an indicator of a confluent monolayer at liquid covered culture (LCC) the media was removed from both sides and 800 μl of media was added to the basolateral side of the Transwells to facilitate air-interface culture (AIC) conditions. The TEER responses of the cells were measured with an Endohom 12 mm Culture Cup (World Precision Instruments, Sarasota, Fla.). […] TEER values were then recorded for up to 7 days after aerosol treatment, as previously reported (Meenach S A, 2014, supra; Meenach S A, et al., April 2016; 48(4):1701-1709).
The cells were seeded at 500,000 cells/ml in Costar Transwells® (0.4 μm polyester membrane, 12 mm for a 12-well plate) with 0.5 ml of media on the apical side and 1.5 ml of media on the basolateral side. […] The TEER responses of the cells were measured with an Endohom 12 mm Culture Cup (World Precision Instruments, Sarasota, Fla.). […] TEER values were then recorded for up to 7 days after aerosol treatment, as previously reported (Meenach et al., 2014, supra; Meenach et al., 2016, supra).

[6] = laser diffraction, aqueous suspension, volume-based
[7] = Aerolizer, listed as spray dried TMP
[8] = Handihaler, listed as spray dried TMP
[9] = Neohaler, listed as spray dried TMP

Method for A549 pulmonary cell line: (§1) Cell-based assays are often used to determine if test molecules have effects on cell proliferation or show direct cytotoxicity effects that eventually leads to cell death. The effects of TMP formulations were analyzed by measuring the response of lung adenocarcinoma cells at different concentrations of the drug. […] The H348 pulmonary cell line is a human bronchoalveolar epithelial cell line similar to alveolar type II cells and express lung surfactant associated protein A (SP-A) (Acosta M F, et al., Current pharmaceutical design. 2016; 22(17):2522-2531). […]
(§2) As previously reported (Acosta et al., 2014, supra), both cell lines were seeded in 96-well plates at 5000 cells/well and 100 μl/well and allowed to attach for 48 hours. […] At this point, the fluorescence intensity was detected at 544 nm (excitation) and 590 nm (emission) using a Synergy H1 Multi-Mode Reader (BioTek Instruments Inc., Winooski, Vt.).
(§3) Cell-based assays are often used to determine if test molecules have effects on cell proliferation or show direct cytotoxicity effects that eventually leads to cell death. The effects of TMP formulations were analyzed by measuring the response of lung adenocarcinoma cells at different concentrations of the drug. […]
Method for H358 pulmonary cell line: as §1, §2, §3

## Cc1nc(C)c(C)nc1C [Raw TMP, tetramethylpyrazine, reference compound]
[1]
  Residual water content: 0.633 ± 0.251% w/w
H358 pulmonary cell line
  Effect on cell viability: decrease

## Cc1nc(C)c(C)nc1C [SD TMP, tetramethylpyrazine]
[2]; Group 2 (Naive + TMP)
  Right ventricle systolic pressure (RVSP): 20-25 mmHg and ~25 mmHg and 23.8990 mmHg and 24.7030 mmHg and 26.0550 mmHg and 19.6940 mmHg and 20.8110 mmHg and 24.2410 mmHg
[2]; Group 5 (MCT + TMP), 4 weeks after MCT
  Right ventricle systolic pressure (RVSP): 58.6830 mmHg and 62.4200 mmHg and 43.3890 mmHg and 59.8200 mmHg and 78.2010 mmHg and 70.5310 mmHg
[2]; Group 5 (MCT + TMP), measured weekly
  Body weight: significant loss of weight
[2]; Group 5, after two weeks of aerosol treatment
  Decrease of RVSP relative to group 3 (MCT, 4 weeks): 20-30 mmHg
[3]; (Dv90-Dv10)/Dv50
  Particle sizing span value: 1.684±0.645
[3]; laser diffraction
  Particle size distribution (size range): 4-14 μm
[3]; [6]
  Particle sizing Dv10: 4.186±0.701 μm
  Particle sizing Dv50: 6.156±1.47 μm and 6.156 ± 1.147 μm
  Particle sizing Dv90: 14.552±4.928 μm
[1]
  Residual water content: 0.368±0.103 % w/w
[4]; Aerolizer
  Emitted Fraction (%): 88%
  Emitted dose: 79.98 mg
  Fine Particle Dose: 1.15 mg
  Fine Particle Fraction (%): 1.41%
  GSD: 2.88
  MMAD: 15.23 μm
  Respirable Dose: 8.16 mg
  Respirable Fraction (%): 14.86 ± 8.0%
[4]; [7]
  Emitted Fraction (%): 88.76 ± 7.27%
  Fine Particle Fraction (%): 1.41 ± 0.57%
  MMAD: 15.23 μm
[4]; Handihaler
  Emitted Fraction (%): 100%
  Emitted dose: 86.92 mg
  Fine Particle Dose: 3.33 mg
  Fine Particle Fraction (%): 3.33%
  GSD: 5.28
  MMAD: 68.4 μm
  Respirable Dose: 37.24 mg
  Respirable Fraction (%): 8.9 ± 3.87%
[4]; [8]
  Emitted Fraction (%): 100 ± 2.03%
  Fine Particle Fraction (%): 3.83 ± 0.42%
  MMAD: 68.4 μm
[4]; Neohaler
  Emitted Fraction (%): 88%
  Emitted dose: 79.28 mg
  Fine Particle Dose: 3.48 mg
  Fine Particle Fraction (%): 4.36%
  MMAD: 43.73 μm
  Respirable Dose: 25.19 mg
  Respirable Fraction (%): 14.87 ± 7.30%
[4]; [9]
  Emitted Fraction (%): 88.41 ± 6.70%
  Fine Particle Fraction (%): 4.36 ± 0.65%
  MMAD: 43.73 μm
[4]; in vitro aerosol stage deposition
  Particles deposited on the first NGI stage: above 90%
[5]; 3 hours after treatment
  TEER (electrical resistance): decreases drastically
[5]; seven days of culturing after treatment
  TEER (electrical resistance): resistance was regained
H358 pulmonary cell line
  Effect on cell viability: didn't affect the cell viability
A549 pulmonary cell line
  Effect on cell viability: didn't affect the cell viability
A549 pulmonary cell line; human, 72 h
  Amount of drug found not to be toxic to pulmonary cell lines: up to 7 mg
